Consider 2 molecules from US12534466B2, “Crystalline forms of pyrimidino diazepine derivative” (CYCLACEL LIMITED, priority 2019, dated 2026).

Counter-ions that a name gives are not always drawn. Like-named read-outs stand apart in the source and are kept apart here.

For series [1], the target named is polo-like kinase 1 (PLK1) (Homo sapiens, UniProt P53350). To be noted: cited from earlier work.
Series [2] can be described thus: Gravimetric vapour sorption (GVS/DVS) hygroscopicity. It is filed as physicochemical. To be noted: for Hygroscopicity classification: weight increase from 40-80% RH (25° C.), classes of Table 9, monohydrate. The procedure: Sorption isotherms were obtained using a Hiden Isochema moisture sorption analyser (model IGAsorp), controlled by IGAsorp Systems Software V6.50.48. The sample was maintained at a constant temperature (25° C.) by the instrument controls. The humidity was controlled by mixing streams of dry and wet nitrogen, with a total flow of 250 ml·min^−1. The instrument was verified for relative humidity content by measuring three calibrated Rotronic salt solutions (10-50-88%). The weight change of the sample was monitored as a function of humidity by a microbalance (accuracy+/−0.005 mg). A defined amount of sample was placed in a tared mesh stainless steel basket under ambient conditions. A full experimental cycle typically consisted of three scans (sorption, desorption and sorption) at a constant temperature (25° C.) and 10% RH intervals over a 0-90% range (60 minutes for each humidity level).

Sequence of polo-like kinase 1 (PLK1) (P53350 whole entry): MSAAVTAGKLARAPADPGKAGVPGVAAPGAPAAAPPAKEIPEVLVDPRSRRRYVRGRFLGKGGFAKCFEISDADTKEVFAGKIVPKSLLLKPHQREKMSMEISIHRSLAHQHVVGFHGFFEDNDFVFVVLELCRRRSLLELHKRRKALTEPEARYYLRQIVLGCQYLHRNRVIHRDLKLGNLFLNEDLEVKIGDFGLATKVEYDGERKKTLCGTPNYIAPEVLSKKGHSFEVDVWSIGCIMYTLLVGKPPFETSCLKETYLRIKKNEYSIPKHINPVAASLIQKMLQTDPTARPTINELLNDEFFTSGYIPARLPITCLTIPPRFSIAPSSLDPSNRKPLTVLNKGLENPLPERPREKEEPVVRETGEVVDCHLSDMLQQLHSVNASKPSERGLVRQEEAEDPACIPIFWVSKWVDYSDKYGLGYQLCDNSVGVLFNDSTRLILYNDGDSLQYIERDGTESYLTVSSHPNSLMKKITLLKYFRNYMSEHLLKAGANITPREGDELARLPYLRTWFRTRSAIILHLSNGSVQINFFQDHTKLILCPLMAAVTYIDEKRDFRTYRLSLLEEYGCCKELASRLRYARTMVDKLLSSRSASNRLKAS

For the molecule `COc1cc(C(=O)N[C@H]2CC[C@H](N3CCN(C)CC3)CC2)ccc1Nc1ncc2c(n1)N(C1CCCC1)CC1(CC1)C(=O)N2C` [Compound (I), 4-(9′-cyclopentyl-5″-methyl-6′-oxo-5′,6′,8′,9′-tetrahydrospiro[cyclopropane-1,7′-pyrimido[4,5-b][1,4]diazepine]-2′-ylamino)-N((trans)-4-(4-methylpiperazin-1-yl)cyclohexyl)-3-methoxybenzamide], the figures for the “Inhibition of PLK1 (in words)” value in series [1] and in series [1] (listed as compound (I)) were “potent inhibitory activity” and “potent inhibitor”, respectively.

For the molecule `COc1cc(C(=O)N[C@H]2CC[C@H](N3CCN(C)CC3)CC2)ccc1Nc1ncc2c(n1)N(C1CCCC1)CC1(CC1)C(=O)N2C` [Monohydrochloride monohydrate], in series [2], the “Hygroscopicity (in words)” value was “relatively low hygroscopicity”; the “Stability of the crystalline form (in words)” value is listed as “stable crystalline form”; the Hygroscopicity classification entry is “Slightly hygroscopic (≥0.2% and <2%)”. Further, in series [2] (40-80% RH, 25° C., sorption cycle), the “Weight change (%) from 40 to 80% RH @25° C. (sorption cycle by GVS)” value is “+0.9%”. Besides, the Hygroscopicity classification entry in series [2] (listed as monohydrochloride monohydrate salt) was “slightly hygroscopic”.
